Measurements: ChEMBL document CHEMBL5154810, “Development of Potent Immune Modulators Targeting Stimulator of Interferon Genes Receptor” (J Med Chem, 2022)
Calls of active or inactive are those of the source. The calls are words filed in the database; no cut-off is given here.

Columns and labels:
[1] = Solubility of the compound in DMSO at 50 to 100 uM incubated for 72 hrs; assay type: physicochemical; conditions: dose 50-100 µM
[2] = biological target: T1, Stimulator of interferon genes protein (Homo sapiens, UniProt Q86WV6); assay: Binding affinity to recombinant human His-tagged STING by measuring fluorescent signals in the presence of d2 labelled STING wild type ligand by HTRF based microplate reader analysis
T1 sequence (Q86WV6 whole entry): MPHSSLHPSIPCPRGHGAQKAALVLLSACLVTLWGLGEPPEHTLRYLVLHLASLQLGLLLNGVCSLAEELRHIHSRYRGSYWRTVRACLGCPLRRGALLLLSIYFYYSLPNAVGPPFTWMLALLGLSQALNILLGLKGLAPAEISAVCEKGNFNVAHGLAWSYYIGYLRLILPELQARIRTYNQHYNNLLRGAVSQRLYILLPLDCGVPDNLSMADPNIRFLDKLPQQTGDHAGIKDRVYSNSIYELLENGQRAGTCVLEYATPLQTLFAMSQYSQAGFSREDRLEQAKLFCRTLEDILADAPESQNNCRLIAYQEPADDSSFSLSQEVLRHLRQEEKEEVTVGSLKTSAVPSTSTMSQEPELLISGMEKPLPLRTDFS

[3] = biological target: T2, Stimulator of interferon genes protein (Mus musculus) (UniProt Q3TBT3); assay: Activation of STING mediated immune response in mouse RAW264.7 cells assessed as induction of IP-10 secretion at 5000 to 20000 nM measured after 24 hrs by ELISA; assay type: cell-based; conditions: filed as activator, dose 5000-20000 nM
T2 sequence (whole entry): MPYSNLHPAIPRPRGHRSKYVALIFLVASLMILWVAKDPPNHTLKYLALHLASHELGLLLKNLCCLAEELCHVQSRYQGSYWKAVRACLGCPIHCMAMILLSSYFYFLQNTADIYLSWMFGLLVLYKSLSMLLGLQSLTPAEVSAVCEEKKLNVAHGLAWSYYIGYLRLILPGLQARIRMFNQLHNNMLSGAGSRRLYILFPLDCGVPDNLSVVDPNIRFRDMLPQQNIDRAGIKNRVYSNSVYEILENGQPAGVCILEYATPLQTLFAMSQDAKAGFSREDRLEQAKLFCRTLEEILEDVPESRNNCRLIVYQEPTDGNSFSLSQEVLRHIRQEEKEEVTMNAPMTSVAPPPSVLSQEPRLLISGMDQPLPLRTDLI

[4] = biological target: T2, Stimulator of interferon genes protein (Mus musculus); assay: Activation of STING mediated immune response in mouse RAW264.7 cells assessed as induction of IFNbeta secretion at 5000 to 20000 nM measured after 24 hrs by ELISA; assay type: cell-based; conditions: filed as activator, dose 5000-20000 nM
[5] = biological target: T1, Stimulator of interferon genes protein; conditions: THP1-Dual, filed as activator, dose 50.0 µM, time 24.0 hrs
[6] = biological target: T1, Stimulator of interferon genes protein; assay: Activation of STING mediated immune response in human THP-1 cells assessed as induction of IFNbeta secretion at 500 to 5000 nM measured after 24 hrs by ELISA; assay type: cell-based; conditions: filed as activator, dose 500-5000 nM
[7] = test system: THP1-Dual; assay: Cytotoxicity against human wild type THP1-Dual cells assessed as residual cell viability by CellTiter96 Aqueous One Solution Cell Proliferation Assay; assay type: functional; design: concentration or dose not given beside the values
[8] = Cytotoxicity against human THP1-Dual KO-STING cells assessed as residual cell viability by CellTiter96 Aqueous One Solution Cell Proliferation Assay; assay type: functional; design: concentration or dose not given beside the values
[9] = biological target: T1, Stimulator of interferon genes protein; assay: Activation of STING mediated immune response in human THP-1 cells assessed as induction of IP-10 secretion at 500 to 5000 nM measured after 24 hrs by ELISA; assay type: cell-based; conditions: filed as activator, dose 500-5000 nM
[10] = Activation of IRF-mediated immune response in human THP1-Dual KO-STING cells co-expressing ISRE reporter assessed as normalized luciferase gene expression by measuring relative luciferase units at 50 uM incubated for 24 hrs by QUANTI Luc based microplate reader method; assay type: functional
[11] = Toxicity in BALB/c mouse xenografted with mouse CT26 cells assessed as body weight loss at 0.015 mg/kg, iv measured after 8 days; assay type: organism-based; conditions: in vivo, 192 h, time 8 day
[12] = test system: CT26; assay: Antitumor immunity activity against mouse CT26 cells xenografted in BALB/c mouse model assessed as tumor growth inhibition at 0.015 mg/kg, iv measured after 8 days; assay type: functional, organism-based; conditions: time 8.0 day
[13] = test system: PBMC; assay: Induction of IFN-beta secretion in human PBMC cells at 1.6 to 1000 nM by ELISA; assay type: functional, cell-based; conditions: dose 1.6-1000 nM
[14] = test system: RAW264.7; assay: Induction of IL-6 secretion in mouse RAW264.7 cells at 2 uM incubated for 24 hrs by ELISA; assay type: functional, cell-based
[15] = AUCinfinity in BALB/c mouse at 3 mg/kg, iv by LC-MS/MS analysis; assay type: ADME, organism-based; design: time infinity, dose 3 mg/kg, route iv; conditions: BALB/c, in vivo
[16] = Terminal half life in BALB/c mouse at 3 mg/kg, iv by LC-MS/MS analysis; assay type: ADME, organism-based; conditions: in vivo, read-out: beta t1/2 (converted)
[17] = biological target: Nuclear factor NF-kappa-B complex (Homo sapiens) (UniProt Q00653+P19838+Q04206); assay: Activation of NF-kappaB mediated pro-inflammatory effector proteins in human THP-1 cells at 2 to 10 nM incubated for 4 hrs by western blot analysis; assay type: cell-based; conditions: filed as activator, dose 2-10 nM
Nuclear factor NF-kappa-B complex (Homo sapiens), sequence (P19838 whole entry, looked up): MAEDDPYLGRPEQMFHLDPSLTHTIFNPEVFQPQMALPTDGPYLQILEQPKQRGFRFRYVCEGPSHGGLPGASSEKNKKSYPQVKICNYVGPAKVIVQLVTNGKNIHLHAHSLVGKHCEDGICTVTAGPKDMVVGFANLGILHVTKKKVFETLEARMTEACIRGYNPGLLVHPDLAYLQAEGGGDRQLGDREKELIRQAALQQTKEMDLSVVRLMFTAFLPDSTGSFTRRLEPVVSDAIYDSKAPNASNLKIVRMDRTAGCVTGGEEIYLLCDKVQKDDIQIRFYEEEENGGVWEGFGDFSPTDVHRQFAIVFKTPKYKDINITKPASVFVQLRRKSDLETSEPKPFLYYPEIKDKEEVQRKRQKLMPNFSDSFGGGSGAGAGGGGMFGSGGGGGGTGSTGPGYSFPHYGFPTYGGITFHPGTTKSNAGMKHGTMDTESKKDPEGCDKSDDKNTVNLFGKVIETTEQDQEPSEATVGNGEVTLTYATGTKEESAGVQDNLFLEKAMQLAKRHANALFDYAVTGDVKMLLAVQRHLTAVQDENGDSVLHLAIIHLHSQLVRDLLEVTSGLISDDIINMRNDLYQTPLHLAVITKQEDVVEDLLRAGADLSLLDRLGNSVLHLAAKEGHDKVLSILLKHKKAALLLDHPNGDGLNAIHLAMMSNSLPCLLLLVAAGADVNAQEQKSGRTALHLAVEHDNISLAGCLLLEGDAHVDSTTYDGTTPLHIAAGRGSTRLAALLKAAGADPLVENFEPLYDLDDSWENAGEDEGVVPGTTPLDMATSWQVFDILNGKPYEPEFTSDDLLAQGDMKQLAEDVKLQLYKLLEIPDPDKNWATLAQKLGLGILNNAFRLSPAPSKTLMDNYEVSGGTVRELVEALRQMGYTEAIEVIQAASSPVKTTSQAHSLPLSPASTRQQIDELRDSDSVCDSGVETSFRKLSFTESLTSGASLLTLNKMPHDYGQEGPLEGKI
Nuclear factor NF-kappa-B complex (Homo sapiens), sequence (Q00653 whole entry, looked up): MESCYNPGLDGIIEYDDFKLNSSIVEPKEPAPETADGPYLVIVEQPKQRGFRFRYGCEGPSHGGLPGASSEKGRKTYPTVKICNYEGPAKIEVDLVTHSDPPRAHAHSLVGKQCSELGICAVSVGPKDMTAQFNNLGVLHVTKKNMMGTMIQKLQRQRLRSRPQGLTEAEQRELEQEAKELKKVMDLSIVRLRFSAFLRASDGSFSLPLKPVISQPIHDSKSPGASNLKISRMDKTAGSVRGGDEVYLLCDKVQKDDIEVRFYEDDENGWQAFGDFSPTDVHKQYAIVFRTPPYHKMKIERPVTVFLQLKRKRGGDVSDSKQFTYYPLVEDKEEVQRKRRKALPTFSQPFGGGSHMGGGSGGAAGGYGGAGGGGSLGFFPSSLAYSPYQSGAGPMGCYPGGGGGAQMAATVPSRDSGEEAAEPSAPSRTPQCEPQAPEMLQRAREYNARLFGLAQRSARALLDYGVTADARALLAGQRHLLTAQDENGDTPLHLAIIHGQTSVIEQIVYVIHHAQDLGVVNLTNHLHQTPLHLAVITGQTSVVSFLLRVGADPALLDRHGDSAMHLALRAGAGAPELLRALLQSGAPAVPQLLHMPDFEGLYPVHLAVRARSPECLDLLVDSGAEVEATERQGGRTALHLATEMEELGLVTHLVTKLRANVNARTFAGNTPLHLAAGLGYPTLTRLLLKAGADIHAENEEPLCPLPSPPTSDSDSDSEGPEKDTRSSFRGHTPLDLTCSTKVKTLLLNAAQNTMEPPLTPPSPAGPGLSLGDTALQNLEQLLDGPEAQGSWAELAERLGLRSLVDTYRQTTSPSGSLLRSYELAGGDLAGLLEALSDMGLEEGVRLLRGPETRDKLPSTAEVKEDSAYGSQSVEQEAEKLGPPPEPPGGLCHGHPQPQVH
Nuclear factor NF-kappa-B complex (Homo sapiens), sequence (Q04206 whole entry, looked up): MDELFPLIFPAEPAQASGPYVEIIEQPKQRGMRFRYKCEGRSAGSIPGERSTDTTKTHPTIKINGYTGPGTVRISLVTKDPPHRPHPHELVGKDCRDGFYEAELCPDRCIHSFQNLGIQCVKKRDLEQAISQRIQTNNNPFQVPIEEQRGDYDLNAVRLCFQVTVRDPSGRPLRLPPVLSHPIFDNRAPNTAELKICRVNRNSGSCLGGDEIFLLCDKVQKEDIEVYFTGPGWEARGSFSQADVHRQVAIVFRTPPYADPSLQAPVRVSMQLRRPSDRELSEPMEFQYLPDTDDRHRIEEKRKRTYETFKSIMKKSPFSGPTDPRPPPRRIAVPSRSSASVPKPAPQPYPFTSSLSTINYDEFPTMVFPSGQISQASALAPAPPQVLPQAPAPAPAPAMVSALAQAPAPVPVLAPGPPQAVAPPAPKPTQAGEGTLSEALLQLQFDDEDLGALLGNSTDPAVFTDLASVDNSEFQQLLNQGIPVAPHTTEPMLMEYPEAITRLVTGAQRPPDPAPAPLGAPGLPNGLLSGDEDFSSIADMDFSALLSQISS

[18] = test system: RAW264.7; assay: Induction of IP-10 secretion in mouse RAW264.7 cells at 0.64 to 10000 nM by ELISA; assay type: functional, cell-based; conditions: dose 0.64-10000 nM
[19] = test system: CT26; assay: Antitumor immunity activity against mouse CT26 cells xenografted in BALB/c mouse model assessed as tumor growth inhibition at 1.5 mg/kg, iv measured after 8 days; assay type: functional, organism-based; conditions: time 8.0 day
[20] = Induction of IP-10 secretion in human THP-1 cells assessed as maximal efficacy by ELISA relative to control; assay type: functional
[21] = test system: RAW264.7; assay: Activation of NF-kappaB mediated pro-inflammatory effector proteins in mouse RAW264.7 cells at 100 to 500 nM for incubated for 3 hrs by western blot analysis; assay type: cell-based; conditions: filed as activator, dose 100-500 nM
[22] = Volume of distribution at steady state in BALB/c mouse at 3 mg/kg, iv by LC-MS/MS analysis; assay type: ADME, organism-based; conditions: in vivo, read-out: Vdss
[23] = Toxicity in BALB/c mouse xenografted with mouse CT26 cells assessed as effect on body weight at 1.5 mg/kg, iv measured after 8 days; assay type: organism-based; conditions: in vivo, 192 h, time 8 day
[24] = test system: CT26; assay: Immunological memory derived cancer inhibition in mouse CT26 cells inoculated in 1.5 mg/kg, iv for 8 days treated/cured BALB/c mouse model assessed as tumor recurrence followed by re-inoculation of cells; assay type: functional, organism-based; conditions: time 8.0 day
[25] = Clearance in BALB/c mouse at 3 mg/kg, iv by LC-MS/MS analysis; assay type: ADME, organism-based; conditions: BALB/c, in vivo
[26] = AUClast in BALB/c mouse at 3 mg/kg, iv by LC-MS/MS analysis; assay type: ADME, organism-based; design: time 0 - last, dose 3 mg/kg, route iv; conditions: in vivo
[27] = test system: RAW264.7; assay: Induction of TNF-alpha secretion in mouse RAW264.7 cells at 0.625 uM incubated for 24 hrs by ELISA; assay type: functional, cell-based

Compound: CCn1nc(C)cc1C(=O)Nc1nc2cc(C(N)=O)ccc2n1CCCCn1c(NC(=O)c2cc(C)nn2CC)nc2cc(C(N)=O)ccc21
- solubility [1]: Insoluble
- IC50 [2]: 6.16 nM

Compound: CCn1nc(C)cc1C(=O)/N=c1\[nH]c2cc(C(N)=O)ccc2n1CCCCn1/c(=N/C(=O)c2cc(C)nn2CC)[nH]c2cc(C(N)=O)ccc21
- Activity [3]: Active
- Activity [4]: Active
- RLU [5]: 97.8
- Activity [6]: Active
- Activity [7]: 97.4%
- Activity [8]: 93.8%
- Activity [9]: Active
- RLU [10]: 0.8

Compound: CCn1nc(C)cc1C(=O)NCCCOc1cc(C(N)=O)cc2nc(NC(=O)c3cc(C)nn3CC)n(C/C=C/Cn3c(NC(=O)c4cc(C)nn4CC)nc4cc(C(N)=O)cc(OC)c43)c12
- Activity [11]: Non-Toxic
- Activity [12]: Active
- Activity [13]: Active
- Activity [14]: Active
- AUC(0-inf) [15]: 4300 ng·h/mL
- half-life [16]: 1.75 h
- Activity [17]: Active
- Activity [18]: Active
- Activity [19]: Active
- Emax [20]: 325%
- Activity [21]: Active
- Vd [22]: 1.81 L/kg
- RLU [5]: 100
- Activity [23]: Non-Toxic
- Activity [24]: Active
- clearance [25]: 12 mL/min/kg
- AUC(0-t) [26]: 4240 ng·h/mL
- Activity [27]: Active
- RLU [10]: 0.8
